Results from the RepoRT retention time repository.

Assay: HILIC, Merck SeQuant ZIC-HILIC, 25 °C, 0.25 mL/min; A: water + 16 mM ammonium formate; B: acetonitrile + 0.1% formic acid, pH 3; gradient (min/%B) 0/97 2/97 10/70 15/10 17/10 18/97 25/97
Conditions: stereoisomer not certain
With `C[N+](C)(C)CCCCC(N)C(=O)[O-]` (centres undefined) [N-N-N-TRIMETHYLLYSINE] the LC retention time was 16.5 min. Work on `CC(=CCC1=C(C)C(=O)c2ccccc2C1=O)CCCC(C)CCCC(C)CCCC(C)C` (centres undefined) [PHYLLOQUINONE] yielded an LC retention time of 1.49 min. Work on `O=C(O)c1ccccc1O` [SALICYLATE] yielded an LC retention time of 1.81 min. With `O=C(O)C(O)C(O)C(O)C(O)COP(=O)(O)O` (centres undefined) [6-PHOSPHOGLUCONATE] the LC retention time was 15.1 min. `O=C(O)C(=O)CCc1ccccc1` [2-oxo-4-phenyl-butyric acid] showed an LC retention time of 2.06 min. Compound `O=C([O-])C(O)C(O)C(=O)[O-]` (stereo not drawn) [MESO-TARTRATE] has an LC retention time of 13.6 min. Work on `CCOC(=O)CCNC(N)=O` [ETHYL 3-UREIDOPROPIONATE] yielded an LC retention time of 2.14 min. `CC(=O)C1(O)CCC2C3CCC4=CC(=O)CCC4(C)C3CCC21C` (centres undefined) [17a-Hydroxyprogesterone] gave an LC retention time of 1.61 min. In the case of `O=C/C=C/c1ccccc1` [Trans-Cinnamaldehyde], the LC retention time is reported as 1.57 min. `O=C(O)c1ccc[nH]1` [PYRROLE-2-CARBOXYLATE] showed an LC retention time of 2.08 min. In the case of `O=C(CO)COP(=O)(O)O` [DIHYDROXYACETONE PHOSPHATE], the LC retention time is reported as 14 min. For `CC1C(=O)Nc2ccccc21` (centres undefined) [3-METHYL-2-OXINDOLE], the LC retention time was 1.73 min. `NCCS(=O)O` [HYPOTAURINE] gave an LC retention time of 13.9 min. With `O=C1CC(C(=O)O)NC(=O)N1` (centres undefined) [DIHYDROOROTATE] the LC retention time was 10.6 min. With `CCCCCCCCC=CCCCCCCCC(=O)OCC(O)COP(=O)([O-])OCC[N+](C)(C)C` (centres undefined) [18-1_LysoPC] the LC retention time was 11.2 min. Compound `CC(=O)Oc1cccc(O)c1` [RESORCINOL MONOACETATE] has an LC retention time of 1.71 min. Work on `CC(=O)NC(Cc1c[nH]c2ccccc12)C(=O)O` (centres undefined) [N-ACETYLTRYPTOPHAN] yielded an LC retention time of 2.15 min. `COc1cc(C(=O)O)ccc1O` [Vanillic acid] showed an LC retention time of 2.08 min. `CCCCCCCCCCCCCC=CC(O)C(COP(=O)([O-])OCC[N+](C)(C)C)NC(=O)CCCCCCCCCCCCCCCCC` (centres undefined) [SPHINGOMYELIN] gave an LC retention time of 10.8 min. `COc1cc(C(O)C(=O)O)ccc1O` (centres undefined) [3-METHOXY-4-HYDROXYMANDELATE] gave an LC retention time of 4.88 min. In the case of `NCCCNCCCN` [NORSPERMIDINE], the LC retention time is reported as 19.4 min. `NC(=O)[C@@H](N)Cc1c[nH]c2ccccc12` [L-TRYPTOPHANAMIDE] showed an LC retention time of 11.7 min. Work on `COc1cc(C=CC(=O)O)ccc1O` [FERULATE] yielded an LC retention time of 1.94 min. Work on `O=CC[C@@H](O)[C@H](O)[C@H](O)CO` [2-DEOXY-D-GLUCOSE] yielded an LC retention time of 10.2 min. `Nc1ncnc2c1ncn2C1OC(COP(=O)(O)OP(=O)(O)O)C(O)C1O` (centres undefined) [ADENOSINE 5'-DIPHOSPHATE] gave an LC retention time of 14.7 min. For `CCCCCCCCCCCCCCCC(=O)OCC(CO)OC(=O)CCCCCCCCCCCCCCC` (centres undefined) [DIPALMITOYLGLYCEROL], the LC retention time was 1.5 min. For `Cn1cc(C(N)=O)ccc1=O` [N-methyl-2-pyridone-5-carboxamide], the LC retention time was 2.21 min. `OCC1OC(OCC2OC(O)(CO)C(O)C2O)C(O)C(O)C1O` (centres undefined) [PALATINOSE] gave an LC retention time of 13.6 min. In the case of `CC(C)C(C(=O)O)C(O)C(=O)O` (centres undefined) [3-isopropylmalic acid], the LC retention time is reported as 2.19 min. For `NC(Cc1ccc(O)c(O)c1)C(=O)O` [3-4-DIHYDROXY-L-PHENYLALANINE], the LC retention time was 13.4 min. For `O=c1ccc2cc(O)ccc2[nH]1` [2-6-quinolinediol], the LC retention time was 2.16 min. `Cn1c(=O)[nH]c2[nH]c(=O)[nH]c2c1=O` [1-Methyluric acid] gave an LC retention time of 9.44 min. For `CCCCCCCCCCCCCCCCCCCCCCC(=O)[O-]` [TRICOSANOATE], the LC retention time was 1.53 min. For `O=C(O)c1ccc(CO)o1` [5-hydroxymethyl-2-furancarboxylic acid], the LC retention time was 4.31 min.
